Tests used:
[1] = system: rabbit serum obtained by immunizing a rabbit with the SARS-CoV strain Frankfurt 1; format: binding; set-up: Binding of a rabbit serum to linear peptides / Binding of a rabbit serum to looped peptides / Rabbit serum linear peptides / Rabbit serum looped peptides / Binding of a rabbit serum to linear peptides of protein N of SARS-CoV Urbani (Rabbit serum linear peptides) / Binding of a rabbit serum to looped/cyclic peptides of protein N of SARS-CoV Urbani (Rabbit serum looped peptides): unit not given here
[2] = system: antibodies in sera from SARS patients (sera 1a, 1b, 2, 6, 37, 62, London, SARS-yellow, SARS-green); format: binding, human; set-up: Binding of serum 6 to linear peptides of protein X1 of SARS-CoV Urbani / Binding of serum 37 to linear peptides of protein X1 of SARS-CoV Urbani / Binding of serum 6 to looped/cyclic peptide (PEPSCAN-ELISA) / Binding of serum 37 to looped/cyclic peptide (PEPSCAN-ELISA) / Binding of serum 37 to looped/cyclic peptides of protein X1 of SARS-CoV Urbani / Binding of serum 6 to linear peptides of protein X2 / Binding of serum 37 to linear peptides of protein X2 / Binding of serum 37 to looped/cyclic peptides of protein X2 of SARS-CoV Urbani / Binding of serum 6 to linear peptides of protein M of SARS-CoV Urbani / Binding of serum 37 to linear peptides of protein M of SARS-CoV Urbani / Binding of serum 6 to looped/cyclic peptides of protein M of SARS-CoV Urbani / Binding of serum 37 to looped/cyclic peptides of protein M of SARS-CoV Urbani / Binding of serum 6 to linear peptides of protein X3 of SARS-CoV Urbani / Binding of serum 37 to linear peptides of protein X3 of SARS-CoV Urbani / Binding of serum 37 to looped/cyclic peptides of protein X3 of SARS-CoV Urbani / Binding of serum 6 to linear peptides of protein X4 of SARS-CoV Urbani / Binding of serum 37 to linear peptides of protein X4 of SARS-CoV Urbani / Binding of serum 37 to looped/cyclic peptides of protein X4 of SARS-CoV Urbani / Binding of serum 6 to linear peptides of protein X5 of SARS-CoV Urbani / Binding of serum 37 to linear peptides of protein X5 of SARS-CoV Urbani / Binding of serum 37 to looped/cyclic peptides of protein X5 of SARS-CoV Urbani / Binding of serum 6 to linear peptides of protein N of SARS-CoV Urbani / Binding of serum 37 to linear peptides of protein N of SARS-CoV Urbani / Binding of serum 6 to linear peptide (PEPSCAN-ELISA) / Binding of serum 1a to looped/cyclic peptides of protein N of SARS-CoV Urbani / Binding of serum 1b to looped/cyclic peptides of protein N of SARS-CoV Urbani / Binding of serum 2 to looped/cyclic peptides of protein N of SARS-CoV Urbani / Binding of serum 6 to looped/cyclic peptides of protein N of SARS-CoV Urbani / Binding of serum 37 to looped/cyclic peptides of protein N of SARS-CoV Urbani / Binding of serum 62 to looped/cyclic peptides of protein N of SARS-CoV Urbani / Binding of serum London to looped/cyclic peptides of protein N of SARS-CoV Urbani / Binding of serum SARS-green to looped/cyclic peptides of protein N of SARS-CoV Urbani: unit not given here
[3] = system: control sera (pooled serum of ten healthy LUMC hospital workers; commercial negative donor pooled serum from the Dutch bloodbank); format: binding, human; set-up: Binding of Control serum LUMC to linear peptides / Binding of Control serum Blood-bank to linear peptides / Binding of Control serum LUMC to looped peptides / Binding of Control Serum Blood-Bank to Looped peptides / Binding of Control serum LUMC to linear peptides of the protein M of SARS-CoV Urbani / Binding of Control serum Blood-bank to linear peptides of the protein M of SARS-CoV Urbani / Binding of Control serum LUMC to looped peptides of the protein M of SARS-CoV Urbani / Binding of Control Serum Blood-Bank to Looped peptides of the protein M of SARS-CoV Urbani: unit not given here
[4] = system: recombinant human anti-SARS-CoV antibody 03-018; format: binding; set-up: Binding of antibody 03-018 to linear peptides of the N protein of SARS-CoV Urbani / Binding of antibody 03-018 to looped/cyclic peptides of the N protein of SARS-CoV Urbani: unit not given here

Sequence | Binding of a rabbit serum to linear peptides of protein N of SARS-CoV Urbani (Rabbit serum linear peptides) [1] | Binding of a rabbit serum to looped/cyclic peptides of protein N of SARS-CoV Urbani (Rabbit serum looped peptides) [1] | Binding of serum 1a to linear peptides of protein N of SARS-CoV Urbani [2] | Binding of serum 1a to looped/cyclic peptides of protein N of SARS-CoV Urbani [2] | Binding of serum 1b to linear peptides of protein N of SARS-CoV Urbani [2] | Binding of serum 1b to looped/cyclic peptides of protein N of SARS-CoV Urbani [2] | Binding of serum 2 to linear peptides of protein N of SARS-CoV Urbani [2] | Binding of serum 2 to looped/cyclic peptides of protein N of SARS-CoV Urbani [2] | Binding of serum 6 to linear peptides of protein N of SARS-CoV Urbani [2] | Binding of serum 6 to looped/cyclic peptides of protein N of SARS-CoV Urbani [2] | Binding of serum 37 to linear peptides of protein N of SARS-CoV Urbani [2] | Binding of serum 37 to looped/cyclic peptides of protein N of SARS-CoV Urbani [2] | Binding of serum 62 to linear peptides of protein N of SARS-CoV Urbani [2] | Binding of serum 62 to looped/cyclic peptides of protein N of SARS-CoV Urbani [2] | Binding of serum London to linear peptides of protein N of SARS-CoV Urbani [2] | Binding of serum London to looped/cyclic peptides of protein N of SARS-CoV Urbani [2] | Binding of serum SARS-green to linear peptides of protein N of SARS-CoV Urbani [2] | Binding of serum SARS-green to looped/cyclic peptides of protein N of SARS-CoV Urbani [2] | Binding of serum SARS-yellow to linear peptides of protein N of SARS-CoV Urbani [2] | Binding of serum SARS-yellow to looped/cyclic peptides of protein N of SARS-CoV Urbani [2] | also measured
KDKKKKTDEAQPLPQ | 0.1 | 0.0 | 0.2 | 0.2 | 0.1 | 0.1 | 0.2 | 0.2 | 0.2 | 0.2 | 0.7 | 0.4 | 0.6 | 0.3 | 0.6 | 0.4 | 0.5 | 0.1 | 0.5 | 0.1 | Control Serum Blood-Bank Looped peptides [3]: 0.5; Control serum Blood-bank linear peptides [3]: 0.6; Control serum LUMC linear peptides [3]: 0.6; Control serum LUMC looped peptides [3]: 0.4; Binding of antibody 03-018 to linear peptides of the N protein of SARS-CoV Urbani [4]: 0.1; Binding of antibody 03-018 to looped/cyclic peptides of the N protein of SARS-CoV Urbani [4]: 0.2
KDNVILLNKHIDAYK | 0.2 | 0.4 | 0.3 | 0.3 | 0.2 | 0.2 | 0.3 | 0.2 | 0.3 | 0.1 | 0.7 | 0.4 | 0.8 | 0.3 | 0.6 | 0.3 | 0.4 | 0.1 | 0.8 | 0.4 | Control Serum Blood-Bank Looped peptides [3]: 0.5; Control serum Blood-bank linear peptides [3]: 0.8; Control serum LUMC linear peptides [3]: 0.7; Control serum LUMC looped peptides [3]: 0.5; Binding of antibody 03-018 to linear peptides of the N protein of SARS-CoV Urbani [4]: 0.1; Binding of antibody 03-018 to looped/cyclic peptides of the N protein of SARS-CoV Urbani [4]: 0.2
KEELRFPRGQGVPIN | 0.1 | 0.6 | 0.2 | 0.4 | 0.1 | 0.3 | 0.3 | 0.5 | 0.2 | 0.4 | 0.7 | 0.7 | 0.6 | 0.5 | 0.5 | 0.7 | 0.5 | 0.4 | 0.5 | 0.6 | Binding of Control Serum Blood-Bank to Looped peptides [3]: 0.7; Binding of Control serum Blood-bank to linear peptides [3]: 0.8; Binding of Control serum LUMC to linear peptides [3]: 0.7; Binding of Control serum LUMC to looped peptides [3]: 0.7; Binding of antibody 03-018 to linear peptides of the N protein of SARS-CoV Urbani [4]: 0.1; Binding of antibody 03-018 to looped/cyclic peptides of the N protein of SARS-CoV Urbani [4]: 0.3
